The values that follow come from patent publication US20240360151A1 (SANOFI, priority 2023, published 2024).

The structures appear in SMILES notation. Bounds are passed on as bounds.

The target in this assay is T1, NLRP3 inflammasome (Homo sapiens, UniProt Q96P20).
T1 construct: endogenous in cells; host or cells: THP-1 monocytic cells
T1 sequence (Q96P20 whole entry): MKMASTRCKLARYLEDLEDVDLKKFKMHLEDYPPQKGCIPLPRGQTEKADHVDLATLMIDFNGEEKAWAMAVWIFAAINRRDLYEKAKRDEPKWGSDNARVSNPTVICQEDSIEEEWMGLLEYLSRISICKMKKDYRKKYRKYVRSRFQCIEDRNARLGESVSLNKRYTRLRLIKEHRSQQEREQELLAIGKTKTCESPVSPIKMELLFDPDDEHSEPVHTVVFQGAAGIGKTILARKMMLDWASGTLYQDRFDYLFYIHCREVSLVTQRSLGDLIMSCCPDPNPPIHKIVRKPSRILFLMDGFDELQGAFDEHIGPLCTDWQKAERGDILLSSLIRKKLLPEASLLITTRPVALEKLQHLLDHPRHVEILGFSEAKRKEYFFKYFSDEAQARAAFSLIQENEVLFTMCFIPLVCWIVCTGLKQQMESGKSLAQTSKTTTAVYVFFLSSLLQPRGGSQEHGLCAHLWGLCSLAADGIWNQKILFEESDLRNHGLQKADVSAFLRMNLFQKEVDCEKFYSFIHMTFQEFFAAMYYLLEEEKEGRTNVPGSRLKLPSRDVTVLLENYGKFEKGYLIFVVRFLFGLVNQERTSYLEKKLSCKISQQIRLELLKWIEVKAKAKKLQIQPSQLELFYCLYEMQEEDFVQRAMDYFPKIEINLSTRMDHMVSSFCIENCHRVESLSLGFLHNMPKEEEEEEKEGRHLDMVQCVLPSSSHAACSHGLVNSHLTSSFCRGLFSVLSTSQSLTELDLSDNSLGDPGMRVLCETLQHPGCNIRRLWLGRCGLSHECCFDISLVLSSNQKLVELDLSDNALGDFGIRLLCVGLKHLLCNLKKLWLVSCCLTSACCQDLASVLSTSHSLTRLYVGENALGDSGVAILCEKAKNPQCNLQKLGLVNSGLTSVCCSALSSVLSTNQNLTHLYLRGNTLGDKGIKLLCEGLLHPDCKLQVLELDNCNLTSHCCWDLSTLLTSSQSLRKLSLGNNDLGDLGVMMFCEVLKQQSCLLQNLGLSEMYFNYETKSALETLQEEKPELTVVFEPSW
Nature of the assay: IL-1β secretion assay (NLRP3 IC50) in LPS-primed, nigericin-activated THP-1 cells, HTRF. The class given is cell-based. To be noted: monocytic THP-1 cells; LPS 10 ng/mL 3 h priming, then compound + nigericin 10 μM 2 h; relative IC50, 10 concentrations, geometric mean. On the procedure: Monocytic THP-1 cells were maintained in RPMI 1640 media (Gibco 21875)+10% FBS, (Gibco 10500)+1% penicillin/streptomycin (Gibco 15140-122). Cells were then plated at 40,000 cells per well in 384-well cell culture plates (CoRNning 3542) and maintained with RPMI1640 (Gibco 11835)+5% FBS (Gibco 10500). Activation of the NLRP3 inflammasome requires both an NF-kB-dependent priming step and the addition of a NLRP3 activator. The priming step was induced by LPS (10 ng/mL, InvivoGen ref tlrl-3pelps) for 3 h at 37° C., then compound, in a 1:3 serial dilution series in DMSO (final concentration DMSO 0.1%), and the activator nigericin (Sigma Aldrich, ref: SML1779) 10 μM (final concentration) were added to the cells and co-incubated for 2 hours. 16 μL supernatant was removed, and IL-1β levels were monitored using an HTRF assay (Human IL1b Kits HTRF Cisbio ref: 62HILBPEH) according to manufacturers' instructions.
Data were expressed as percentage of inhibition (I %) as compared to a maximum signal control containing no small molecule (I %=0%) according to the formula: 1%=(1−((Sample−Min))/((Max−Min)))×100, where: • Sample: Signal obtained in the presence of each compound tested, • Max: Maximum signal in the absence of compound added, • Min: Minimum or background signal obtained in the absence of activation signal.
Relative IC50 (IC50 rel) were obtained from a dose response curve with 10 concentrations. Final IC50 rels are expressed as the geometric mean.
Relative IC50 values were estimated with Biost@t-SPEED v2.4 internal software based on SAS system using the 4-parameter logistic model according to Ratkovsky and Reedy (D. A. Ratkovsky, T. J. Reedy, Choosing near-linear parameters in the four parameters logistic model radioligands and related assays. Biometrics, 42 (1986), 575-582): Y=A+C/((1+exp(−B*(log(X)−M)))), where: • A: Lower asymptote (BOTTOM), • A+C: Upper asymptote (TOP), • M: the logarithm of the concentration estimated at the inflexion point (the logarithm of the relative IC50), • B: Slope at the inflexion point of the curve.
On the technique in general: Time-resolved FRET reads energy transfer from a long-lived donor to a nearby acceptor.
By IC50 is commonly meant the point on the concentration scale where inhibition reaches its midpoint. Consider `CCN1CC[C@H]2CCN(c3ccc(-c4c(C)cccc4O)nn3)[C@H]2C1` (single isomer, unassigned) [Example 498], for which the concentration for half-maximal inhibition (IC50) was 0.951 µM. On to `Cc1cc(C)c(-c2ccc(N3CCOCC34CCCN(C)C4)nn2)c(O)c1` (stereo not drawn) [Example 449, 3,5-dimethyl-2-[6-(8-methyl-4-oxa-1,8-diazaspiro[5.5]undecan-1-yl)pyridazin-3-yl]phenol], for which the concentration for half-maximal inhibition (IC50) is 4.19 µM.

On to `Oc1cc(Cl)ccc1-c1ccc(N2CCO[C@@H]3CCN(CCF)C[C@@H]32)nn1` [Example 525, 2-[6-[(4aS,8aR)-6-(2-fluoroethyl)-3,4a,5,7,8,8a-hexahydro-2H-pyrido[4,3-b][1,4]oxazin-4-yl]pyridazin-3-yl]-5-chloro-phenol], for which the IC50 worked out at 0.631 µM. On to `Cc1cc(Cl)cc(O)c1-c1ccc(N2CCO[C@@H]3CCNC[C@@H]32)nn1` [Example 309, 2-[6-[(4aS,8aR)-2,3,4a,5,6,7,8,8a-octahydropyrido[4,3-b][1,4]oxazin-4-yl]pyridazin-3-yl]-5-chloro-3-methyl-phenol], for which the half-maximal inhibitory concentration (IC50) was 0.249 µM. To `Cc1cc(C(F)(F)F)cc(O)c1-c1ccc(N2CCO[C@H](CN(C)C)C2)nn1` [Example 27, 2-[6-[(2R)-2-[(dimethylamino)methyl]morpholin-4-yl]pyridazin-3-yl]-3-methyl-5-(trifluoromethyl)phenol] belongs 1.26 µM. With `COc1cc(C)c(-c2ccc(N3CCO[C@H](CO)C3)nn2)c(O)c1` [Example 96, 2-[6-[(2S)-2-(hydroxymethyl)morpholin-4-yl]pyridazin-3-yl]-5-methoxy-3-methyl-phenol], the IC50 was 0.124 µM.

For the compound `CC(=O)N1CCC[C@@H]2[C@H]1CCCN2c1ccc(-c2c(C)cc(C(F)(F)F)cc2O)nn1` [Example 462, 1-[(4aR,8aR)-5-[6-[2-hydroxy-6-methyl-4-(trifluoromethyl)phenyl]pyridazin-3-yl]-2,3,4,4a,6,7,8,8a-octahydro-1,5-naphthyridin-1-yl]ethanone], the IC50 is 0.251 µM. Consider `CCN1CC[C@@H]2CCN(c3cc(C(F)F)c(-c4ccc(C)cc4O)nn3)[C@@H]2C1` (single isomer, unassigned) [Example 489], for which the IC50 turned out to be 0.232 µM.

Consider `Cc1cc(C(F)(F)F)cc(O)c1-c1ccc(N2CC[C@H](CO)C2=O)nn1` (single isomer, unassigned) [Example 325], for which the half-inhibitory concentration (IC50) was determined as 0.275 µM. On to `Cc1cc(C)c(-c2ccc(N3CCO[C@H](C(N)=O)C3)nn2)c(O)c1` [Example 181, (2S)-4-[6-(2-hydroxy-4,6-dimethylphenyl)pyridazin-3-yl]morpholine-2-carboxamide], for which the IC50 came to 1.39 µM. Regarding `COC[C@@H]1CCN(c2ccc(-c3c(C)cc(C)cc3O)nn2)C1` [Example 88, 2-[6-[(3R)-3-(methoxymethyl)pyrrolidin-1-yl]pyridazin-3-yl]-3,5-dimethyl-phenol], the concentration for half-maximal inhibition (IC50) was determined as 1.15 µM.

Consider `Cc1cc(C(F)(F)F)cc(O)c1-c1ccc(N2CCO[C@H](CO)C2=O)nn1` (stereo in doubt) [Example 368, 2-(hydroxymethyl)-4-[6-[2-hydroxy-6-methyl-4-(trifluoromethyl)phenyl]pyridazin-3-yl]morpholin-3-one], for which the IC50 amounted to 0.188 µM. As for `CCc1cccc(O)c1-c1cc(C)c(N2CCO[C@@H]3CCN(C)C[C@@H]32)nn1` [Example 439, 2-[6-[(4aS,8aR)-6-methyl-3,4a,5,7,8,8a-hexahydro-2H-pyrido[4,3-b][1,4]oxazin-4-yl]-5-methyl-pyridazin-3-yl]-3-ethyl-phenol], the half-maximal inhibitory concentration (IC50) stood at 0.569 µM. Turning to `Cc1cc(C(F)(F)F)cc(O)c1-c1ccc(N2CC[C@@H](CO)C2=O)nn1` (single isomer, unassigned) [Example 326], the IC50 is 0.198 µM.

For `Cc1ccc(-c2nnc(N3CCO[C@@H]4CCN(C(C)C)C[C@@H]43)cc2C)c(O)c1` [Example 472, 2-[6-[(4aS,8aR)-6-isopropyl-3,4a,5,7,8,8a-hexahydro-2H-pyrido[4,3-b][1,4]oxazin-4-yl]-4-methyl-pyridazin-3-yl]-5-methyl-phenol], the IC50 turned out to be 0.001 µM. Next, `Cc1cc(C)c(-c2ccc(N3CCO[C@@H]4COCC[C@@H]43)nn2)c(O)c1` (racemic) [Example 111, 2-[6-[rac-(4aS,8aS)-3,4a,5,7,8,8a-hexahydro-2H-pyrano[3,4-b][1,4]oxazin-1-yl]pyridazin-3-yl]-3,5-dimethyl-phenol]: 0.496 µM; `Cc1cc(C)c(-c2ccc(N3CC4(CCC(O)CC4)C3)nn2)c(O)c1` [Example 83, 2-[6-(2-hydroxy-4,6-dimethyl-phenyl)pyridazin-3-yl]-2-azaspiro[3.5]nonan-7-ol]: 2.79 µM; `CC(=O)N1C[C@@H]2OCCN(c3ccc(-c4c(C)cc(C(F)(F)F)cc4O)nn3)[C@@H]2C1` (racemic) [Example 335, 1-[rac-(4aR,7aS)-4-[6-[2-hydroxy-6-methyl-4-(trifluoromethyl)phenyl]pyridazin-3-yl]-2,3,4a,5,7,7a-hexahydropyrrolo[3,4-b][1,4]oxazin-6-yl]ethanone]: 0.481 µM. On to `Cc1cc(C)c(-c2cc(C(F)F)c(N3CC[C@H]4CCN(C)C[C@H]43)nn2)c(O)c1` (single isomer, unassigned) [Example 487], for which the IC50 came to 0.001 µM. Turning to `CCN1CC[C@@H]2CCN(c3cc(C)c(-c4ccc(C)cc4O)nn3)[C@@H]2C1` (single isomer, unassigned) [Example 474], the 50% inhibitory concentration (IC50) was < 0.0003 µM.

With `Cc1cc(C)c(-c2ccc(N3CCC[C@@H](N(C)C)C3)nn2)c(O)c1` [Example 148, 2-[6-[(3R)-3-(dimethylamino)-1-piperidyl]pyridazin-3-yl]-3,5-dimethyl-phenol], the half-inhibitory concentration (IC50) stood at 0.922 µM. For `CC(=O)N1CC[C@H]2OCCN(c3ccc(-c4c(C)cccc4O)nn3)[C@H]2C1` [Example 409, 1-[(4aS,8aR)-4-[6-(2-hydroxy-6-methyl-phenyl)pyridazin-3-yl]-3,4a,5,7,8,8a-hexahydro-2H-pyrido[4,3-b][1,4]oxazin-6-yl]ethanone], the concentration for half-maximal inhibition (IC50) worked out at 0.638 µM. In the case of `Cc1cc(C)c(-c2ccc(N3CCOCC34CN(C)C4)nn2)c(O)c1` [Example 455, 3,5-dimethyl-2-[6-(2-methyl-8-oxa-2,5-diazaspiro[3.5]nonan-5-yl)pyridazin-3-yl]phenol], the IC50 worked out at 7.15 µM.

As for `Cc1cc(C)c(-c2ccc(N3CCCCC(CO)C3)nn2)c(O)c1` (stereo not drawn) [Example 107, 2-[6-[3-(hydroxymethyl)azepan-1-yl]pyridazin-3-yl]-3,5-dimethyl-phenol], the IC50 is 0.385 µM.

As to `CN1CC[C@@H]2CCN(c3ccc(-c4c(O)cccc4C(F)(F)F)nn3)[C@@H]2C1` (single isomer, unassigned) [Example 426], the IC50 was determined as 0.952 µM. Consider `CCc1cc(C)cc(O)c1-c1ccc(N2CC[C@@H]3CCN(C)C[C@@H]32)nn1` (single isomer, unassigned) [Example 477], for which the IC50 was < 0.0003 µM. On to `CNC(=O)[C@@H]1CN(c2ccc(-c3c(C)cc(C)cc3O)nn2)CCO1` [Example 166, (2S)-4-[6-(2-hydroxy-4,6-dimethylphenyl)pyridazin-3-yl]-N-methylmorpholine-2-carboxamide], for which the IC50 is 3.31 µM. Next, `Cc1cc(C(F)(F)F)cc(O)c1-c1ccc(N2CCOC(CO)C2=O)nn1` (single isomer, unassigned) [Example 420]: 0.601 µM. Turning to `CN(C)C[C@H]1CCCN(c2ccc(-c3c(O)cc(Cl)cc3Cl)nn2)C1` [Example 50, 3,5-dichloro-2-[6-[(3R)-3-[(dimethylamino)methyl]-1-piperidyl]pyridazin-3-yl]phenol], the half-maximal inhibitory concentration (IC50) stood at 0.549 µM.

Turning to `Cc1cc(N2CCO[C@H](CO)C2)nnc1-c1ccc(C(F)(F)F)cc1O` [Example 97, 2-[6-[(2S)-2-(hydroxymethyl)morpholin-4-yl]-4-methyl-pyridazin-3-yl]-5-(trifluoromethyl)phenol], the IC50 was found to be 0.038 µM.

On to `Oc1cc(Cl)cc(Cl)c1-c1ccc(N2CCC3(CC2)CC(O)C3)nn1` [Example 37, 7-[6-(2,4-dichloro-6-hydroxy-phenyl)pyridazin-3-yl]-7-azaspiro[3.5]nonan-2-ol], for which the half-maximal inhibitory concentration (IC50) was determined as 0.893 µM. Next, `CCN1CC[C@@H]2CCN(c3ccc(-c4c(C)cc(C)cc4O)nn3)[C@@H]2C1` (single isomer, unassigned) [Example 505]: 0.0004 µM; `CC(=O)N1CC[C@@H]2OCCN(c3ccc(-c4c(C)cc(C(F)(F)F)cc4O)nn3)[C@H]2C1` (single isomer, unassigned) [Example 349]: 0.953 µM.
